According to patent publication US20240058240A1, “COMPOUNDS AS SELF-TANNING SUBSTANCES AND TANNING COMPOSITIONS THEREOF” (CHEMCOM S.A., priority 2020, published 2024):

molecular target: T1, OR7C1 (Homo sapiens, UniProt O76099); experiment: Luciferase-based CRE gene reporter assay, dose-response on OR7C1; type: cell-based; conditions: negative logarithm of the EC50 in Moles; semi-logarithmic dilutions from 1 mM to 316 nM on OR7C1
T1 construct: transfected with a plasmid containing the CRE-luciferase and a plasmid containing the olfactory receptor; expressed in transfected cells; host or cells: HEK293T-RTP1A1/RTP2 (HEK293T stably expressing the chaperones RTP1A1 and RTP2)
T1 sequence (O76099 1-320): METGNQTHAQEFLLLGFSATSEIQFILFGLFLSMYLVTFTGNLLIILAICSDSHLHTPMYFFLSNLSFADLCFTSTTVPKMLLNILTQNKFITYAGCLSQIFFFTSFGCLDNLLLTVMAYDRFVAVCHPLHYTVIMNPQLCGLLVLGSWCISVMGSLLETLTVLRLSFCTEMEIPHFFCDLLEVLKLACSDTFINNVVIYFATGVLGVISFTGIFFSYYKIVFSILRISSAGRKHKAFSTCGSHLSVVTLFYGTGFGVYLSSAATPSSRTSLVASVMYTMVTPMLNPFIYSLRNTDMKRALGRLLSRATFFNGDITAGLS
Experimental: HEK293T-RTP1A1/RTP2 cells were maintained in minimal essential medium (EMEM, Lonza) containing 10% fetal bovine serum (M10). These cells were generated by transfecting HEK293T (Thermofisher Scientific, cat ref: R70007) with an expression vector containing the sequences of the chaperone proteins RTP1A1 and RTP2 and a resistance gene to puromycin, using Lipofectamine 2000. The recombinant cell population, used in these experiments, was selected by adding 10 μg/ml of puromycin into the culture medium and subsequently subcloned (WO 2014/191047 A1).
Potential OR7C1 agonists were diluted at a concentration of 1 mole/liter (M) into an organic solvent such as Dimethyl Sulfoxide (DMSO) or Ethanol to generate stock solutions. […]
For concentration-response analysis, serial dilutions of the tested molecules were prepared from stock solutions in EMEM plated into 96-well plates.
For the dose-response analysis, a Luciferase-based gene reporter assay (Promega, Leiden, the Netherlands) was used. Briefly, cells were platted on poly-D-lysine-coated 96-well plates and transfected with a plasmid containing the CRE-luciferase and a plasmid containing the olfactory receptor. Sixteen hours after transfection, the culture medium was replaced by serum-free EMEM containing the tested compounds at a determined concentration. After four hours of incubation at 37° C., cells were lysed and processed for luminescence measurement. Luminescence emission was recorded. Results were expressed as luciferase activity ([…] (RLU)) or as percentage of the response induced by 10 μM of the adenylate cyclase activator Forskolin. An empty plasmid is used as negative control.
Dose-response analyses using the luciferase-based reporter assay were performed using semi-logarithmic serial dilutions of the compounds, from 1 mM to 316 nM, on OR7C1. 46 compounds were tested in concentration-response analyses. In each experiment, an empty vector (pEFIBRHO) was used as negative control. Values are given as the negative logarithm of the EC50 in Moles.

Compound | -LogEC50 (average n > 3)
2-(2,2,7,7-Tetramethyl-5-tricyclo[6.2.1.01,6]undec-4-enyl)butan-1-ol [Compound 28] | 6.6
5-(1-Methoxybutan-2-yl)-2,2,7,7-tetramethyltricyclo[6.2.1.01,6]undec-5-ene [Compound 29] | 5.2
Hydroxyambran [Compound 41] | 5.5

same assay, conditions: negative logarithm of the EC50 in Moles; semi-logarithmic dilutions from 1 mM to 316 nM on OR7C1; read-out: -LogEC50 (average n > 3) (converted)

Compound | EC50 [µM]
CCCC(O)COC1C(C)CCCC1(C)C (mixture of isomers) [Compound 14, 1-((2,2,6-trimethylcyclohexyl)oxy)pentan-2-ol] | 126
CCC(O)COC1C(C)CCCC1(C)C (mixture of isomers) [Compound 15, 1-((2,2,6-trimethylcyclohexyl)oxy)butan-2-ol] | 126
CC1(C)/C(=C\CO)C2CCC1C2 (racemic) [Compound 8, DL-Patchenol] | 31.6
CCC1OC2CC(C)(C)[C@@]34CC[C@@H](C3)C(C)(C)C4C2O1 (stereo in doubt) [Compound 20, 6-Ethyl-2,2,10,10-tetramethyl-5,7-dioxatetracyclo[9.2.1.01,9.04,8]tetradecane] | 12.6
CC1OC2CC(C)(C)[C@@]34CC[C@@H](C3)C(C)(C)C4C2O1 (stereo in doubt) [Compound 23, 2,2,6,10,10-Pentamethyl-5,7-dioxatetracyclo[9.2.1.01,9.04,8]tetradecane] | 5.01
CC1(C)C2C3OCOC3CC(C)(C)[C@]23CC[C@H]1C3 (stereo in doubt) [Compound 24, 2,2,10,10-Tetramethyl-5,7-dioxatetracyclo[9.2.1.01,9.04,8]tetradecane] | 10
COC[C@@H](C)C1=C2C(C)(C)[C@H]3CC[C@@]2(C3)C(C)(C)CC1 (stereo in doubt) [Compound 26, 5-(1-Methoxypropan-2-yl)-2,2,7,7-tetramethyltricyclo[6.2.1.01,6]undec-5-ene] | 2.51
CC1(C)CCC[C@]2(C)C[C@]3(CCC12)CO3 (stereo in doubt) [Compound 38, 4,4,8a-Trimethylspiro[2,3,4a,5,6,8-hexahydro-1H-naphthalene-7,2′-oxirane]] | 50.1
CCCC(O)CCC1C(C)CCCC1(C)C (centres unmarked) [Compound 1, Norlimbanol] | 3.98
CCC(O)COC1CCCCC1C(C)(C)C (centres unmarked) [Compound 2, Ambercore] | 12.6
CCC12CCC3C(C)(C)CCCC3(C)C1COC2 (centres unmarked) [Compound 3, Grisalva] | 25.1
CCCC(O)COC1C2(C)CCC(C2)C1(C)C (centres unmarked) [Compound 5, 1-((1,3,3-trimethylbicyclo[2.2.1]heptan-2-yl)oxy)pentan-2-ol] | 50.1
CCCC(=O)COC1C2(C)CCC(C2)C1(C)C (centres unmarked) [Compound 6, 1-((1,3,3-trimethylbicyclo[2.2.1]heptan-2-yl)oxy)pentan-2-one] | 50.1
CCC(O)COC1C2(C)CCC(C2)C1(C)C (centres unmarked) [Compound 7, 1-((1,3,3-trimethylbicyclo[2.2.1]heptan-2-yl)oxy)butan-2-ol] | 50.1
CC(C)[C@H]1OCC[C@]2(CC3CC[C@]2(C)C3(C)C)O1 [Compound 9, Belambre] | 1.58
CC1OC[C@H](C)C2(CC3CCC2(C)C3(C)C)O1 (stereo partly drawn) [Compound 10, 1′,2,5(S),7′,7′-Pentamethyl-spiro[1,3-dioxane-4,2′-bicyclo[2.2.1]heptane]] | 2.51
CC1OCC(C)C2(CC3CCC2(C)C3(C)C)O1 (centres unmarked) [Compound 11, 1′,2,5,7′,7′-Pentamethylspiro[1,3-dioxane-4,2′-bicyclo[2.2.1]heptane]] | 2
CC1CCC2C(C2(C)C)C12COC(C)(C)OC2 (centres unmarked) [Compound 12, Spirambrene] | 12.6
CC(C)[C@]12C[C@@H]3OC(C)(C)O[C@]3(C)[C@H](C1)C(C)(C)C2 [Compound 13, 2,4,4,10,10-Pentamethyl-8-propan-2-yl-3,5-dioxatricyclo[6.2.1.02,6]undecane] | 0.398

Compound | EC50 [µM]
CC1(C)CCC[C@]2(C)[C@H]3CCO[C@]3(C)CC[C@@H]12 [Compound 18, Ambroxan or (−)-Ambroxide] | 31.6
CC(=O)OCC1CCC(C)(C)C23CC4C[C@H]2C13C4(C)C (some centres unmarked) [Compound 19, Amboryl acetate] | 63.1
CC(C=O)C1=C2C(C)(C)[C@H]3CC[C@@]2(C3)C(C)(C)CC1 (some centres unmarked) [Compound 21, 5-(1-Oxopropan-2-yl)isolongifol-5-ene] | 0.501
CC(O)C(C)C1=C2C(C)(C)[C@H]3CC[C@@]2(C3)C(C)(C)CC1 (some centres unmarked) [Compound 22, 5-(3-Hydroxybutan-2-yl)isolongifol-5-ene] | 1.58
CCC(CO)C1=C2C(C)(C)[C@H]3CC[C@@]2(C3)C(C)(C)CC1 (some centres unmarked) [Compound 27, 5-(1-Hydroxybutan-2-yl)isolongifol-5-ene] | 3.16
CCC(COC)C1=C2C(C)(C)[C@H]3CC[C@@]2(C3)C(C)(C)CC1 (some centres unmarked) [Compound 30, 5-(1-Methoxybutan-2-yl)isolongifol-5-ene] | 2.51
CCC(COC)C1=CCC(C)(C)[C@@]23CC[C@@H](C2)C(C)(C)C13 (some centres unmarked) [Compound 31, 5-(1-methoxybutan-2-yl)isolongifol-4-ene] | 3.98
CC1(C)C2C(=O)CCC(C)(C)[C@]23CC[C@H]1C3 (stereo partly drawn) [Compound 32, (1S,8S)-2,2,7,7-Tetramethyltricyclo[6.2.1.01,6]undecan-5-one] | 20
CC(=O)C1(C)CC2=C(CCCC2(C)C)CC1C (centres unmarked) [Compound 34, Sylvamber] | 25.1
CC1O[C@@]12CC[C@H]1C(C)(C)CCC[C@]1(C)[C@H]2C (some centres unmarked) [Compound 35, 3′,4,4,8,8a-Pentamethylspiro[2,3,4a,5,6,8-hexahydro-1H-naphthalene-7,2′-oxirane]] | 31.6
CC1O[C@@]12CC[C@H]1C(C)(C)CCC[C@]1(C)C2 (some centres unmarked) [Compound 36, 3′,4,4,8a-Tetramethylspiro[2,3,4a,5,6,8-hexahydro-1H-naphthalene-7,2′-oxirane]] | 20
C[C@H]1[C@]2(CCC3C(C)(C)CCC[C@@]31C)CO2 (some centres unmarked) [Compound 37, 4,4,8,8a-Tetramethylspiro[2,3,4a,5,6,8-hexahydro-1H-naphthalene-7,2′-oxirane]] | 501
CC(CO)C1CCC(C)(C)[C@@]23CC[C@@H](C2)C(C)(C)C13 (some centres unmarked) [Compound 39, 5-(1-Hydroxypropan-2-yl)isolongifolane] | 1.58
CCOCOC1CCCCCCCCCCC1 [Compound 40, Boisambrene] | 50.1
CC(=O)C1CC/C(C)=C\CC/C(C)=C\C/C=C\1C (centres unmarked) [Compound 42, Cyclisone/Trimofix] | 20
CC1(C)C/C=C\CC/C=C\CCC2OC21C (centres unmarked) [Compound 43, Cedroxyde] | 2
C/C1=C/CCC2(C)OC2CC/C(C)=C\CC1 (centres unmarked) [Compound 44, (E)-woody epoxide] | 7.94
C[C@]12CCC(=O)C[C@@H]1CC[C@@H]1[C@@H]2CC[C@]2(C)C=CC[C@@H]12 [Compound 45, 5α-Androst-16-en-3-one] | 20
C[C@@]12C=CCC1C1CC=C3C[C@@H](O)CC[C@]3(C)C1CC2 (some centres unmarked) [Compound 46, Androstadienol] | 12.6
